# Measurements as given in US20260355212A1 (priority 2022, published 2026).
# Where two headings read alike, the source gives them in different places.
# How the values were obtained:
# SARS-CoV-2 Mpro = SARS-CoV-2 Mpro (Severe acute respiratory syndrome coronavirus 2, UniProt P0DTD1); test: SARS-CoV-2 Mpro enzymatic inhibition assay (fluorescence); type: biochemical
# Procedure: (§1) The hCoV Mpro are cloned, expressed in E. coli and purified by WuXi AppTec Co., Ltd. The substrate are synthesized by Genscript Biotech.
# Compounds are 3 fold serially diluted for 10 doses and added to an assay plate (384w format) using ECHO, in duplicate wells. The test concentration of test compounds is defined by sponsor.
# (§2) 25 μL of Mpro proteins are added to the assay plates containing compounds, respectively, using Multidrop. The compounds and Mpro proteins are pre-incubated at room temperature for 30 min. Then 5 µL of Mpro substrates are added to the related assay plates, respectively.
# (§3) After 60 min incubation at 30° C., the fluorescence signal (RFU) is detected using a microplate reader M2e (SpectraMax) at Ex/Em=340 nm/490 nm.
# (§4) The inhibition activity is calculated using the formula below, IC50 values will be calculated using the Inhibition % data.
# (§5) IC50 values of compounds are calculated with the GraphPad Prism software using the nonlinear regression model of log(inhibitor) vs. response—Variable slope (four parameters).
# HCoV-229E Mpro = HCoV-229E Mpro (Human coronavirus 229E, UniProt P0C6X1); test: HCoV-229E Mpro enzymatic inhibition assay (fluorescence); type: biochemical
# Procedure: as §1
# (§6) Compounds are 3 fold serially diluted for 10 doses and added to an assay plate (384w format) using ECHO, in duplicate wells. The test concentration of test compounds is defined by sponsor. […] For no inhibition control (ZPE, zero percent effect), DMSO is added.
# as §2, with “respectively. Each activity testing point has a relevant background control to normalize the fluorescence interference of compound.” for “respectively.”
# as §3, §4
# (§7) Inhibition %=[(CPD−BGCPD)−(ZPE−BGZPE)/(HPE−BGHPE)−(ZPE−BGZPE)]×[…] • CPD: Signal of test compounds wells, containing compound+enzyme+substrate. • ZPE: Average of signals of zero percent effective control wells, containing enzyme+substrate, no compound. • HPE: Average of signals of hundred percent effect control wells, containing GC376+enzyme+substrate. • BG: Compound background control wells, containing compound+substrate, no enzyme
# as §5
# HCoV-HKU1 Mpro = HCoV-HKU1 Mpro (Human coronavirus HKU1, UniProt P0C6X2); test: HCoV-HKU1 Mpro enzymatic inhibition assay (fluorescence); type: biochemical
# Procedure: as §1, §6
# as §2, with “respectively. Each activity testing point has a relevant background control to normalize the fluorescence interference of compound.” for “respectively.”
# as §3, §4, §7, §5
# MERS Mpro = MERS Mpro (Middle East respiratory syndrome-related coronavirus, UniProt K9N7C7); test: biochemical; design: species or system MERS-CoV
# HCoV-NL63 Mpro = HCoV-NL63 Mpro (Human coronavirus NL63, UniProt P0C6X5); test: HCoV-NL63 Mpro enzymatic inhibition assay (fluorescence); type: biochemical
# Procedure: as §1, §6
# as §2, with “respectively. Each activity testing point has a relevant background control to normalize the fluorescence interference of compound.” for “respectively.”
# as §3, §4, §7, §5
# HCoV-OC43 Mpro = HCoV-OC43 Mpro (Human coronavirus OC43, UniProt P0C6X6); test: HCoV-OC43 Mpro enzymatic inhibition assay (fluorescence); type: biochemical
# Procedure: as §1, §6
# as §2, with “respectively. Each activity testing point has a relevant background control to normalize the fluorescence interference of compound.” for “respectively.”
# as §3, §4, §7, §5
# SARS-CoV-1 Mpro = SARS-CoV-1 Mpro (Severe acute respiratory syndrome coronavirus, UniProt P0C6X7); test: biochemical
# Sequence of MERS Mpro (K9N7C7 3248-3553 limits assumed): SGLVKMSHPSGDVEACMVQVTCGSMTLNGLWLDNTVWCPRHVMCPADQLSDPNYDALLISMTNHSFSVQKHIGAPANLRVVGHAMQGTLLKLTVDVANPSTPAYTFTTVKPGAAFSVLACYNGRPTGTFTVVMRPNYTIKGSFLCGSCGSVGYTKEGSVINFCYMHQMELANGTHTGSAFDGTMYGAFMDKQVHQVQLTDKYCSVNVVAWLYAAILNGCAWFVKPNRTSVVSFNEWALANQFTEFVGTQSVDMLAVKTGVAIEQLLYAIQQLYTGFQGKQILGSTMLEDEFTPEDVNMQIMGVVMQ
# Sequence of HCoV-229E Mpro (P0C6X1 2966-3267 limits assumed): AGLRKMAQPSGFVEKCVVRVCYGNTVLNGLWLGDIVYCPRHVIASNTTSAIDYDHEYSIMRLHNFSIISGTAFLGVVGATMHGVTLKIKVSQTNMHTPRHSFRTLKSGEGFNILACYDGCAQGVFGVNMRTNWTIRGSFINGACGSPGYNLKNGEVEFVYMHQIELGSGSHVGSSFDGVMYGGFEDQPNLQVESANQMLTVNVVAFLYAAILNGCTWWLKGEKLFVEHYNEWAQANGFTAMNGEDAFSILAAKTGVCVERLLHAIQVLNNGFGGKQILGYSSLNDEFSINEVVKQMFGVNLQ
# Sequence of HCoV-OC43 Mpro (P0C6X6 3247-3549 limits assumed): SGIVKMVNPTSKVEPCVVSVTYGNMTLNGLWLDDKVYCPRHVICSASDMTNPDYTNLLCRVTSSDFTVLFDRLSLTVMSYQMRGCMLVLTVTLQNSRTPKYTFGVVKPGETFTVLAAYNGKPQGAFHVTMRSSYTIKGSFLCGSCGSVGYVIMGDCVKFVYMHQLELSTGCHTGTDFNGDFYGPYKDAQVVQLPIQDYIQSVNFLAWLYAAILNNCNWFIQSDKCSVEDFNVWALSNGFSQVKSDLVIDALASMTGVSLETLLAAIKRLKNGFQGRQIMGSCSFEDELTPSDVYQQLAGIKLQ
# Sequence of HCoV-NL63 Mpro (P0C6X5 2940-3242 limits assumed): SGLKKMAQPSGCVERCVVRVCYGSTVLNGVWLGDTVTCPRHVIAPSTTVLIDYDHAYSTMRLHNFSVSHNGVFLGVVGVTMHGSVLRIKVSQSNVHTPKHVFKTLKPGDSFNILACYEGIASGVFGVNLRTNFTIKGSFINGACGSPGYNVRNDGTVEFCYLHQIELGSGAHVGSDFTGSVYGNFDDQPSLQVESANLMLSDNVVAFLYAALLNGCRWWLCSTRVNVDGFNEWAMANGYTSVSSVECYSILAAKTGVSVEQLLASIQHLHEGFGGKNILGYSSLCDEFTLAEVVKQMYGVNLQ
# Sequence of HCoV-HKU1 Mpro (P0C6X2 3335-3637 limits assumed): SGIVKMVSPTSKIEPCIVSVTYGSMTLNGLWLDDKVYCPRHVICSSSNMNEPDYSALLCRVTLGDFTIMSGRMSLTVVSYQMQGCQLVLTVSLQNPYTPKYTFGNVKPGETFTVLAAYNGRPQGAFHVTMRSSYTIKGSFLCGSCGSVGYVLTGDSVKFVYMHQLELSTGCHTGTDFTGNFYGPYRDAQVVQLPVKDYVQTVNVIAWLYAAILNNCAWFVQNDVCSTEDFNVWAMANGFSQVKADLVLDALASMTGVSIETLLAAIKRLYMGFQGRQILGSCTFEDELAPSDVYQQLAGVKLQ
Structure (SMILES),IC50 (SARS-CoV-2 Mpro),IC50 (HCoV-229E Mpro),IC50 (HCoV-HKU1 Mpro),IC50 (MERS Mpro),IC50 (HCoV-NL63 Mpro),IC50 (HCoV-OC43 Mpro),IC50 (SARS-CoV-1 Mpro),also measured
"CC1(C)[C@@H]2[C@@H](C(=O)N[C@H](C=O)C[C@@H]3CCNC3=O)N(C(=O)C3(c4ccccc4)CC3)C[C@@H]21 [Compound 1, (1R,2S,5S)-6,6-dimethyl-N—((S)-1-oxo-3-((S)-2-oxopyrrolidin-3-yl)propan-2-yl)-3-(1-phenylcyclopropanecarbonyl)-3-azabicyclo[3.1.0]hexane-2-carboxamide]",9.53 nM,32.4 nM,11.4 nM,129 nM,73.7 nM,28.4 nM,17.3 nM,
"O=C[C@H](C[C@@H]1CCNC1=O)NC(=O)[C@@H]1CC2(CC2)CN1C(=O)c1cc2cccc(Cl)c2[nH]1 [Compound 2, (S)-5-(7-chloro-1H-indole-2-carbonyl)-N—((S)-1-oxo-3-((S)-2-oxopyrrolidin-3-yl)propan-2-yl)-5-azaspiro[2.4]heptane-6-carboxamide]",9.84 nM,32.6 nM,10.4 nM,199 nM,48.4 nM,38.2 nM,42.5 nM,
"CC(C)(C)[C@H](NC(=O)C(F)(F)F)C(=O)N1C[C@H]2[C@@H]([C@H]1C(=O)N[C@H](C=O)C[C@@H]1CCNC1=O)C2(C)C [Compound 12, (1R,2S,5S)-3-((S)-3,3-dimethyl-2-(2,2,2-trifluoroacetamido)butanoyl)-6,6-dimethyl-N—((S)-1-oxo-3-((S)-2-oxopyrrolidin-3-yl)propan-2-yl)-3-azabicyclo[3.1.0]hexane-2-carboxamide]",,33.8 nM,15 nM,175 nM,53.9 nM,37 nM,21.2 nM,
"CC(C)(C)NC(=O)N[C@H](C(=O)N1C[C@H]2[C@@H]([C@H]1C(=O)N[C@@H](C[C@@H]1CCNC1=O)C(=O)C(N)=O)C2(C)C)C(C)(C)C [Compound 50, (1R, 2S, 5S)—N—((S)-4-amino-3,4-dioxo-1-((S)-2-oxopyrrolidin-3-yl)butan-2-yl)-3-((S)-2-(3-(tert-butyl)ureido)-3,3-dimethylbutanoyl)-6,6-dimethyl-3-azabicyclo[3.1.0]hexane-2-carboxamide]",,130 nM,34.2 nM,621 nM,256 nM,171 nM,46.9 nM,
"CC1(C)[C@@H]2[C@@H](C(=O)N[C@H](C=O)C[C@@H]3CCNC3=O)N(C(=O)CC3CCCCC3)C[C@@H]21 [Compound 54, (1R,2S,5S)-3-(2-Cyclohexylacetyl)-6,6-dimethyl-N—((S)-1-oxo-3-((S)-2-oxopyrrolidin-3-yl)propan-2-yl)-3-azabicyclo[3.1.0]hexane-2-carboxamide]",,,,,,,,"IC50 (HCoV-229E Mpro; read-out: Mpro_229E mean IC50, mean, 50 nM protein, 12.5 μM substrate, 30 min pre-incubation, 60 min at 30° C.): 36.4 nM; IC50 (HCoV-HKU1 Mpro; read-out: Mpro_HKU1 mean IC50, mean, 12.5 nM protein, 12.5 μM substrate, 30 min pre-incubation, 60 min at 30° C.): 18.8 nM; IC50 (MERS Mpro; read-out: Mpro_MERS mean IC50, mean, 100 nM protein, 25 μM substrate, 30 min pre-incubation, 60 min at 30° C.): 285 nM; IC50 (HCoV-NL63 Mpro; read-out: Mpro_NL63 mean IC50, mean, 50 nM protein, 12.5 μM substrate, 30 min pre-incubation, 60 min at 30° C.): 42.6 nM; IC50 (HCoV-OC43 Mpro; read-out: Mpro_OC43 mean IC50, mean, 25 nM protein, 12.5 μM substrate, 30 min pre-incubation, 60 min at 30° C.): 56.7 nM; IC50 (SARS-CoV-1 Mpro; read-out: Mpro_SARS-CoV-1 mean IC50, mean, 25 nM protein (SARS_Mpro), 25 μM substrate, 30 min pre-incubation, 60 min at 30° C.): 37.8 nM"
"O=C[C@H](C[C@@H]1CCNC1=O)NC(=O)[C@@H]1[C@H]2CCC[C@H]2CN1C(=O)COc1ccc(Cl)cc1Cl [Compound 63, (1S,3aR,6aS)-2-(2-(2,4-Dichlorophenoxy)acetyl)-N—((S)-1-oxo-3-((S)-2-oxopyrrolidin-3-yl)propan-2-yl)octahydrocyclopenta[c]pyrrole-1-carboxamide]",,53.8 nM,39.7 nM,382 nM,105 nM,66.8 nM,32.1 nM,
CC1(C)[C@@H]2[C@@H](C(=O)N[C@H](C=O)C[C@@H]3CCNC3=O)N(C(=O)c3cc4ccc(C(F)(F)F)cc4[nH]3)C[C@@H]21 [Compound 96],49.2 nM,,,,,,,
"CC1(C)[C@@H]2[C@@H](C(=O)N[C@@H](C[C@@H]3CCNC3=O)C(=O)C(=O)NC3CC3)N(C(=O)C3(c4ccccc4)CCCC3)C[C@@H]21 [Compound 99, (1R,2S,5S)—N—((S)-4-(Cyclopropylamino)-3,4-dioxo-1-((S)-2-oxopyrrolidin-3-yl)butan-2-yl)-6,6-dimethyl-3-(1-phenylcyclopentanecarbonyl)-3-azabicyclo[3.1.0]hexane-2-carboxamide]",51.4 nM,,,,,,,
"COc1cc2[nH]c(C(=O)N3C[C@H]4[C@@H]([C@H]3C(=O)N[C@H](C=O)C[C@@H]3CCNC3=O)C4(C)C)cc2cc1F [Compound 101, (1R,2S,5S)-3-(5-Fluoro-6-methoxy-1H-indole-2-carbonyl)-6,6-dimethyl-N—((S)-1-oxo-3-((S)-2-oxopyrrolidin-3-yl)propan-2-yl)-3-azabicyclo[3.1.0]hexane-2-carboxamide]",56.3 nM,,,,,,,
"O=C[C@H](C[C@@H]1CCNC1=O)NC(=O)[C@@H]1C[C@H](C2CCCCC2)CN1C(=O)c1cc2ccccc2[nH]1 [Compound 103, (2S,4R)-4-cyclohexyl-1-(1H-Indole-2-carbonyl)-N—((S)-1-oxo-3-((S)-2-oxopyrrolidin-3-yl)propan-2-yl)pyrrolidine-2-carboxamide]",63.9 nM,,,,,,,
"CC1CCC(CC(=O)N2C[C@H]3[C@@H]([C@H]2C(=O)N[C@@H](C[C@@H]2CCNC2=O)C(=O)C(=O)NC2CC2)C3(C)C)CC1 (stereo partly drawn) [Compound 105, (1R,2S,5S)—N—((S)-4-(Cyclopropylamino)-3,4-dioxo-1-((S)-2-oxopyrrolidin-3-yl)butan-2-yl)-6,6-dimethyl-3-(2-(4-methylcyclohexyl)acetyl)-3-azabicyclo[3.1.0]hexane-2-carboxamide]",73.2 nM,,,,,,,
"CC(C)(C)[C@H](NC(=O)c1cc2ccccc2[nH]1)C(=O)N1C[C@H]2[C@@H]([C@H]1C(=O)N[C@@H](C[C@@H]1CCNC1=O)C(=O)C(N)=O)C2(C)C [Compound 116, N—((S)-1-((1R,2S,5S)-2-(((S)-4-amino-3,4-dioxo-1-((S)-2-oxopyrrolidin-3-yl)butan-2-yl)carbamoyl)-6,6-dimethyl-3-azabicyclo[3.1.0]hexan-3-yl)-3,3-dimethyl-1-oxobutan-2-yl)-1H-indole-2-carboxamide]",118 nM,,,,,,,
"CC1(C)[C@@H]2[C@@H](C(=O)N[C@H](C=O)C[C@@H]3CCNC3=O)N(C(=O)c3cc4c(F)c(Cl)ccc4[nH]3)C[C@@H]21 [Compound 117, (1R,2S,5S)-3-(5-Chloro-4-fluoro-1H-indole-2-carbonyl)-6,6-dimethyl-N—((S)-1-oxo-3-((S)-2-oxopyrrolidin-3-yl)propan-2-yl)-3-azabicyclo[3.1.0]hexane-2-carboxamide]",126 nM,,,,,,,
"CC1(C)[C@@H]2[C@@H](C(=O)N[C@@H](C[C@@H]3CCNC3=O)C(=O)C(=O)NC3CC3)N(C(=O)C3(c4ccccc4)CC3)C[C@@H]21 [Compound 119, (1R,2S,5S)—N—((S)-4-(cyclopropylamino)-3,4-dioxo-1-((S)-2-oxopyrrolidin-3-yl)butan-2-yl)-6,6-dimethyl-3-(1-phenylcyclopropanecarbonyl)-3-azabicyclo[3.1.0]hexane-2-carboxamide]",143 nM,,,,,,,
"O=C[C@H](C[C@@H]1CCNC1=O)NC(=O)[C@@H]1C[C@@H](Oc2ccccc2)CN1C(=O)c1cc2ccccc2[nH]1 [Compound 133, (2S,4R)-1-(1H-Indole-2-carbonyl)-N—((S)-1-oxo-3-((S)-2-oxopyrrolidin-3-yl)propan-2-yl)-4-phenoxypyrrolidine-2-carboxamide]",443 nM,,,,,,,
"O=C[C@H](C[C@@H]1CCNC1=O)NC(=O)[C@@H]1C[C@H](Oc2ccccc2)CN1C(=O)c1cc2ccccc2[nH]1 [Compound 134, (2S,4S)-1-(1H-Indole-2-carbonyl)-N—((S)-1-oxo-3-((S)-2-oxopyrrolidin-3-yl)propan-2-yl)-4-phenoxypyrrolidine-2-carboxamide]",451 nM,,,,,,,
